Target: T1, human S1P1 receptor (EDG1) (Homo sapiens, UniProt P21453)
T1 construct: TEV protease site + Gal4-VP16 transcription factor (only in the Tango assay cells; not described for the GTPγS membranes); expressed in transfected cells; host or cells: rat hepatoma cells (membranes, GTPγS assay) or Tango EDG1-bla U2OS cells (Tango assay)
Assay: S1P1 GTPγS assay or S1P1 Tango assay (at least one of the above assays)
Assay type: cell-based
Conditions: read-out: pEC50 in at least one of the above assays (converted)
Method: For membrane preparations all steps were performed at 4° C. Rat hepatoma cells stably expressing the human S1P1 receptor or Rat Basophilic Leukaemia cells (RBL) stably expressing human S1P3 receptor were grown to 80% confluency before being harvested into 10 ml Phospho-Buffered Saline (PBS) and centrifuged at 1200 rpm for 5 minutes. After removal of the supernatant, the pellet was re-suspended and cells were homogenised within a glass Waring blender for 2 bursts of 15 secs in 200 mls of buffer (50 mM HEPES, 1 mM leupeptin, 25 μg/ml bacitracin, 1 mM EDTA, 1 mM PMSF, 2 μM pepstatin A). The blender was plunged into ice for 5 mins after the first burst and 10-40 mins after the final burst to allow foam to dissipate. The material was then spun at 500 g for 20 mins and the supernatant spun for 36 mins at 48,000 g. The pellet was resuspended in the same buffer as above but without PMSF and pepstatin A. The material was then forced through a 0.6 mm needle, made up to the required volume, (usually ×4 the volume of the original cell pellet), aliquoted and stored frozen at −80° C. S1P1 GTPγS assay Human S1P1 rat hepatoma membranes (1.5 μg/well) were adhered to a wheatgerm agglutinin (WGA)-coated scintillation proximity assay (SPA) beads (0.125 mg/well) in assay buffer (HEPES 20 mM, MgCl2 10 mM, NaCl 100 mM and pH adjusted to 7.4 using KOH 5M, GDP 10 μM FAC (final assay concentration) and saponin 90 μg/ml FAC was also added).
After 30 minutes pre-coupling on ice the bead and membrane suspension was dispensed into a white Greiner polypropylene LV384-well plate (5 μl/well), containing 0.1 μl of the compound. 5 μl/well [^35S]-GTPγS (0.5 nM final radioligand conc) made up in assay buffer was then added to agonist plates. The final assay cocktail (10.1 μl) was then centrifuged at 1000 rpm for 5 minutes then read immediately on a Viewlux reader.
All test compounds were dissolved in DMSO at a concentration of 10 mM and were prepared in 100% DMSO using a 1 in 4 dilution step to provide 11 point dose response curves. The dilutions were transferred to the assay plates ensuring that the DMSO concentration was constant across the plate for all assays.
All data was normalized to the mean of 16 high and 16 low control wells on each plate. A four parameter curve fit was then applied.
Recombinant EDG1-bla/U2OS cells (contain the human Endothelial Differentiation Gene 1 (EDG1) linked to a TEV protease site and a Gal4-VP16 transcription factor stably integrated into the Tango GPCR-bla U2OS parental cell line) were suspended in assay medium (Invitrogen Freestyle Expression Medium) at a density of 312, 500 cells/ml. Add 100 μl/well of the assay medium to the cell-free control wells (column 12) and 100 μl/well of the cell suspension to the test compound wells (row 2-8, column 1-10), the unstimulated control wells (DMSO) (column 11), and stimulated control wells (S1P) (row 1, column 1-10) in a Corning black-well, clear bottom 96-well plate. Cells were incubated at 37° C., 5% CO2 for 44-48 h. Add 25 μl of 5× stock solution of test compounds in assay medium with 0.5% DMSO to the test compound wells, 25 μl of 5× stock solution of agonist (S1P) in assay medium with 0.5% DMSO to the stimulated compound wells, and 25 μl of 5× stock solution of 0.5% DMSO in assay medium to the unstimulated control and cell-free control wells.
After incubation at 37° C., 5% CO2 for 5 h, 25 μl of 6× substrate mixture (6 μl Solution A (1 mg LiveBLAzer™-FRET B/G substrate (CCF4-AM) in 912 μl DMSO) plus 60 μl Solution B plus 934 μl Solution C) was added to each well and incubate at room temperature for 2 h in dark. The plate was finally read on EnVision for two emission channels (460 nm and 530 nm).
All test compounds were dissolved in DMSO at a concentration of 10 mM and were prepared in 100% DMSO using a 1 in 5 dilution step to provide 10 point dose response curves. […]

T1 sequence (P21453 whole entry, the tested form may be a part): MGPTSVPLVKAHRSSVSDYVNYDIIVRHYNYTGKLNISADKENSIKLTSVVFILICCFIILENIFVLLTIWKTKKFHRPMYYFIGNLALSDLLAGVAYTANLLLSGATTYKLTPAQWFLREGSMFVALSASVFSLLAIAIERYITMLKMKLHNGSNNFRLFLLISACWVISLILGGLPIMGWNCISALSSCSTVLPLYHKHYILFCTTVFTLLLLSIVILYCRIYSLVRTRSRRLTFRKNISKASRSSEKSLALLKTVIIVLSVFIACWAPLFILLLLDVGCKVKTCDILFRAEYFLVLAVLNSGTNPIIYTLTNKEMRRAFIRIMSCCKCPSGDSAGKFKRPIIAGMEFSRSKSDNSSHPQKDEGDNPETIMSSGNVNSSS

Row | EC50 | SMILES
1 | < 10 nM | CC(C)Oc1ccc(-c2nc(-c3cccc4c(CCC(=O)O)c[nH]c34)no2)cc1Cl [Example 1, 3-[7-(5-{3-chloro-4-[(1-methylethyl)oxy]phenyl}-1,2,4-oxadiazol-3-yl)-1H-indol-3-yl]propanoic acid]
2 | < 10 nM | CC(C)Oc1ccc(-c2nc(-c3cccc4c(CCC(=O)O)cn(C)c34)no2)cc1Cl [Example 2, 3-[7-(5-{3-Chloro-4-[(1-methylethyl)oxy]phenyl}-1,2,4-oxadiazol-3-yl)-1-methyl-1H-indol-3-yl]propanoic acid]
3 | < 1 nM | CC(C)Oc1ccc(-c2nc(-c3cccc4c(CCC(=O)O)c[nH]c34)no2)cc1C#N [Example 3, 3-[7-(5-{3-Cyano-4-[(1-methylethyl)oxy]phenyl}-1,2,4-oxadiazol-3-yl)-1H-indol-3-yl]propanoic acid]
4 | < 1 nM | CC(C)Oc1ccc(-c2nc(-c3ccc4c(CCC(=O)O)c[nH]c4c3)no2)cc1C#N [Example 7, 3-[6-(5-{3-Cyano-4-[(1-methylethyl)oxy]phenyl}-1,2,4-oxadiazol-3-yl)-1H-indol-3-yl]propanoic acid]
5 | ≥ 1000 nM | CC(C)Oc1ccc(-c2nc(-c3ccc4[nH]c(C(=O)O)cc4c3)no2)cc1Cl [Example 8, Sodium 5-(5-{3-chloro-4-[(1-methylethyl)oxy]phenyl}-1,2,4-oxadiazol-3-yl)-1H-indole-2-carboxylate]
6 | < 10 nM | CC(C)Oc1ccc(-c2nc(-c3ccc(F)c4c(CCC(=O)O)c[nH]c34)no2)cc1Cl [Example 19, 3-[7-(5-{3-Chloro-4-[(1-methylethyl)oxy]phenyl}-1,2,4-oxadiazol-3-yl)-4-fluoro-1H-indol-3-yl]propanoic acid]
7 | < 10 nM | CC(C)Oc1ccc(-c2nc(-c3ccc(F)c4c(CCC(=O)O)cn(C)c34)no2)cc1Cl [Example 20, 3-[7-(5-{3-Chloro-4-[(1-methylethyl)oxy]phenyl}-1,2,4-oxadiazol-3-yl)-4-fluoro-1-methyl-1H-indol-3-yl]propanoic acid]
8 | < 10 nM | CC(C)Oc1ccc(-c2nc(-c3ccc(F)c4c(CCC(=O)O)c[nH]c34)no2)cc1C#N [Example 21, 3-[7-(5-{3-Cyano-4-[(1-methylethyl)oxy]phenyl}-1,2,4-oxadiazol-3-yl)-4-fluoro-1H-indol-3-yl]propanoic acid]
9 | ≥ 1000 nM | CCCCn1cc(CCC(=O)O)c2cccc(-c3noc(-c4ccc(OC(C)C)c(Cl)c4)n3)c21 [Example 29, 3-[1-butyl-7-(5-{3-chloro-4-[(1-methylethyl)oxy]phenyl}-1,2,4-oxadiazol-3-yl)-1H-indol-3-yl]propanoic acid]
10 | ≥ 1000 nM | CC(C)Cn1cc(CCC(=O)O)c2cccc(-c3noc(-c4ccc(OC(C)C)c(Cl)c4)n3)c21 [Example 30, 3-[7-(5-{3-chloro-4-[(1-methylethyl)oxy]phenyl}-1,2,4-oxadiazol-3-yl)-1-(2-methylpropyl)-1H-indol-3-yl]propanoic acid]
11 | < 10 nM | CC(C)Oc1ccc(-c2nc(-c3cccc4c(C[C@@H](C)C(=O)O)cn(C)c34)no2)cc1Cl [Example 36, (2R)-3-[7-(5-{3-chloro-4-[(1-methylethyl)oxy]phenyl}-1,2,4-oxadiazol-3-yl)-1-methyl-1H-indol-3-yl]-2-methylpropanoic acid]
12 | ≥ 1000 nM | COc1ccc(-c2nc(-c3cccc4c(CCC(=O)O)cn(C)c34)no2)cc1OC [Example 44, 3-(7-{5-[3,4-bis(methyloxy)phenyl]-1,2,4-oxadiazol-3-yl}-1-methyl-1H-indol-3-yl)propanoic acid]
13 | < 10 nM | CC(C)Oc1ccc(-c2nc(-c3cccc4c(CNCCC(=O)O)c[nH]c34)no2)cc1Cl [Example 46, N-{[7-(5-{3-chloro-4-[(1-methylethyl)oxy]phenyl}-1,2,4-oxadiazol-3-yl)-1H-indol-3-yl]methyl}-β-alanine]
14 | < 1 nM | CC(C)Oc1ccc(-c2nc(-c3cccc4c(CNCC(=O)O)c[nH]c34)no2)cc1Cl [Example 47, N-{[7-(5-{3-chloro-4-[(1-methylethyl)oxy]phenyl}-1,2,4-oxadiazol-3-yl)-1H-indol-3-yl]methyl}glycine]
15 | < 10 nM | CC(C)Oc1ccc(-c2nc(-c3cccc4c(CN5CCC(C(=O)O)CC5)c[nH]c34)no2)cc1Cl [Example 48, 1-{[7-(5-{3-chloro-4-[(1-methylethyl)oxy]phenyl}-1,2,4-oxadiazol-3-yl)-1H-indol-3-yl]methyl}-4-piperidinecarboxylic acid]
16 | < 1 nM | CC(C)Oc1ccc(-c2nc(-c3cccc4c(CN[C@H](C)C(=O)O)c[nH]c34)no2)cc1Cl [Example 49, N-{[7-(5-{3-chloro-4-[(1-methylethyl)oxy]phenyl}-1,2,4-oxadiazol-3-yl)-1H-indol-3-yl]methyl}-D-alanine]
17 | < 1 nM | CC(C)Oc1ccc(-c2nc(-c3cccc4c(CNCCC(=O)O)cn(C)c34)no2)cc1Cl [Example 58, N-{[7-(5-{3-chloro-4-[(1-methylethyl)oxy]phenyl}-1,2,4-oxadiazol-3-yl)-1-methyl-1H-indol-3-yl]methyl}-β-alanine]
18 | < 10 nM | CC(C)Oc1ccc(-c2nc(-c3cccc4c(CCN5CC(C(=O)O)C5)cn(C)c34)no2)cc1Cl [Example 67, 1-{2-[7-(5-{3-chloro-4-[(1-methylethyl)oxy]phenyl}-1,2,4-oxadiazol-3-yl)-1-methyl-1H-indol-3-yl]ethyl}-3-azetidinecarboxylic acid]
19 | < 10 nM | CC(C)Oc1ccc(-c2nc(-c3cccc4c(CCNC5(C(=O)O)CC5)cn(C)c34)no2)cc1Cl [Example 68, 1-({2-[7-(5-{3-chloro-4-[(1-methylethyl)oxy]phenyl}-1,2,4-oxadiazol-3-yl)-1-methyl-1H-indol-3-yl]ethyl}amino)cyclopropanecarboxylic acid]
20 | < 1 nM | CC(C)Oc1ccc(-c2nc(-c3cccc4c(C(=O)NCCC(=O)O)c[nH]c34)no2)cc1Cl [Example 73, N-{[7-(5-{3-chloro-4-[(1-methylethyl)oxy]phenyl}-1,2,4-oxadiazol-3-yl)-1H-indol-3-yl]carbonyl}-β-alanine]
21 | < 1 nM | CC(C)Oc1ccc(-c2nc(-c3cccc4c(C(=O)NCCCC(=O)O)c[nH]c34)no2)cc1Cl [Example 74, 4-({[7-(5-{3-chloro-4-[(1-methylethyl)oxy]phenyl}-1,2,4-oxadiazol-3-yl)-1H-indol-3-yl]carbonyl}amino)butanoic acid]
22 | < 10 nM | CC(C)Oc1ccc(-c2nc(-c3cccc4c(C(=O)N(C)CCC(=O)O)c[nH]c34)no2)cc1Cl [Example 75, N-{[7-(5-{3-chloro-4-[(1-methylethyl)oxy]phenyl}-1,2,4-oxadiazol-3-yl)-1H-indol-3-yl]carbonyl}-N-methyl-β-alanine]
23 | < 1 nM | CC(C)Oc1ccc(-c2nc(-c3cccc4c(C(=O)NCCC(=O)O)cn(C)c34)no2)cc1Cl [Example 76, N-{[7-(5-{3-chloro-4-[(1-methylethyl)oxy]phenyl}-1,2,4-oxadiazol-3-yl)-1-methyl-1H-indol-3-yl]carbonyl}-β-alanine]
24 | ≥ 1000 nM | CC(C)Oc1ncc(-c2nc(-c3ccc4c(CN5CCC(C(=O)O)CC5)c[nH]c4c3)no2)cc1Cl [Example 78, 1-{[6-(5-{5-chloro-6-[(1-methylethyl)oxy]-3-pyridinyl}-1,2,4-oxadiazol-3-yl)-1H-indol-3-yl]methyl}-4-piperidinecarboxylic acid]

From US20100010053A1, “COMPOUNDS” (priority 2008, published 2010)
